Read-outs that look alike come from different tables or passages of the source.
Biological target: PRC2 complex (EZH2 Y641F/EED/SUZ12/RbAp48/AEBP2) (Homo sapiens (Human), UniProt Q15910, Y641F)
Assay: Activity of a compound to PRC2 complex (EZH2 Y641F), HTRF
[1] = read-out: IC50 (EZH2_Y641F), EZH2 Y641F PRC2 complex, HTRF, class symbols
[2] = read-out: IC50 (EZH2_Y641F), EZH2 Y641F PRC2 complex, HTRF, numeric values

PRC2 complex (EZH2 Y641F/EED/SUZ12/RbAp48/AEBP2), sequence (Q15910 whole entry Y641F): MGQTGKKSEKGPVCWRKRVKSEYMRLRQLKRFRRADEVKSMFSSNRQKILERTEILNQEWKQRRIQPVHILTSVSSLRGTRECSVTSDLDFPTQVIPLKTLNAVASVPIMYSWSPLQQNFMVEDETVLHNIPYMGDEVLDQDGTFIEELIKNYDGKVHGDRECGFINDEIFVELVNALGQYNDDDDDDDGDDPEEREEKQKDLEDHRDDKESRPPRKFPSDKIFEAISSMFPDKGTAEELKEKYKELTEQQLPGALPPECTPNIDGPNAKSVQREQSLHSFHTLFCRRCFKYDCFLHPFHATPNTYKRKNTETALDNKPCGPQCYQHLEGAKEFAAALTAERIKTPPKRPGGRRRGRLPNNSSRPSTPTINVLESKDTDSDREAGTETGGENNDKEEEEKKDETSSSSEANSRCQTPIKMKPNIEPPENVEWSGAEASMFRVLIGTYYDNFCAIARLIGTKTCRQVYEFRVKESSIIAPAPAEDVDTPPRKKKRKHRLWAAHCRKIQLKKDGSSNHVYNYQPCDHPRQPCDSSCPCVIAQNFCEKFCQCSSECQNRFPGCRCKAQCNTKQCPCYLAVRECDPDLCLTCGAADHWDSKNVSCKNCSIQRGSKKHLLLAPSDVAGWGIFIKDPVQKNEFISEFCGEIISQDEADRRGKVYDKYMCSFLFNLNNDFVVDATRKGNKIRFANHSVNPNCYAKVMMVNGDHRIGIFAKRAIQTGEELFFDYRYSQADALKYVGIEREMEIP
PRC2 complex (EZH2 Y641F/EED/SUZ12/RbAp48/AEBP2), sequence (O75530 whole entry partner): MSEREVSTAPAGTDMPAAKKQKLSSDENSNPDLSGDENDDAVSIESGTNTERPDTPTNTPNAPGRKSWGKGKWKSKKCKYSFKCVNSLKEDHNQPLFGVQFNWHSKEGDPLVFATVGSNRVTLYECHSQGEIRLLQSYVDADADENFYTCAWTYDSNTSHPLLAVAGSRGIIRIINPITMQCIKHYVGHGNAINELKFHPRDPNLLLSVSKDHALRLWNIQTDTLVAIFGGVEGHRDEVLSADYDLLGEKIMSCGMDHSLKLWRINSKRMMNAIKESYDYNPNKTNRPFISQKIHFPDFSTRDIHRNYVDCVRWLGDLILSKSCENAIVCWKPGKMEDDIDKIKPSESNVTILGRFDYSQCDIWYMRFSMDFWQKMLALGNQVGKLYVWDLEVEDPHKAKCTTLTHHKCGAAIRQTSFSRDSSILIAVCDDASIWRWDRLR
PRC2 complex (EZH2 Y641F/EED/SUZ12/RbAp48/AEBP2), sequence (Q15022 whole entry partner): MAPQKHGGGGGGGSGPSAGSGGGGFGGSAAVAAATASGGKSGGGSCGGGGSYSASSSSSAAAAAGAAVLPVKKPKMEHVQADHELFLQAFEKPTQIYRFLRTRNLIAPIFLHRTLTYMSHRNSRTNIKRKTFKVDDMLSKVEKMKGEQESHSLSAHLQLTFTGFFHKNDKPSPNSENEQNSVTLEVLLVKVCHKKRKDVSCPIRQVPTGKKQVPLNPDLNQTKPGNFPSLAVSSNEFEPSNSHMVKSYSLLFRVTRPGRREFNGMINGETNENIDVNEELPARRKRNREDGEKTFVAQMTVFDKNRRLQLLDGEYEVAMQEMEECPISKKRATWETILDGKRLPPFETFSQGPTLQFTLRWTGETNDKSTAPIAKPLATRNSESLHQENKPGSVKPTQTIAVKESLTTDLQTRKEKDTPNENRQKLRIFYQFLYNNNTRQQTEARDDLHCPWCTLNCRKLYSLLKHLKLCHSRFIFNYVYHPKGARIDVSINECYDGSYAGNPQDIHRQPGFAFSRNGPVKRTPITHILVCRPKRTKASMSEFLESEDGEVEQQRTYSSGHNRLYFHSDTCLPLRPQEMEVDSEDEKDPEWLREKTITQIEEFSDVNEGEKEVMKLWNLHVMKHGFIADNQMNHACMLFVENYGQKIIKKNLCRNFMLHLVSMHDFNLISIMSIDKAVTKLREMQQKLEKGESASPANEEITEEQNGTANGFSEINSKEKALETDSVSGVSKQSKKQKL
PRC2 complex (EZH2 Y641F/EED/SUZ12/RbAp48/AEBP2), sequence (Q09028 whole entry partner): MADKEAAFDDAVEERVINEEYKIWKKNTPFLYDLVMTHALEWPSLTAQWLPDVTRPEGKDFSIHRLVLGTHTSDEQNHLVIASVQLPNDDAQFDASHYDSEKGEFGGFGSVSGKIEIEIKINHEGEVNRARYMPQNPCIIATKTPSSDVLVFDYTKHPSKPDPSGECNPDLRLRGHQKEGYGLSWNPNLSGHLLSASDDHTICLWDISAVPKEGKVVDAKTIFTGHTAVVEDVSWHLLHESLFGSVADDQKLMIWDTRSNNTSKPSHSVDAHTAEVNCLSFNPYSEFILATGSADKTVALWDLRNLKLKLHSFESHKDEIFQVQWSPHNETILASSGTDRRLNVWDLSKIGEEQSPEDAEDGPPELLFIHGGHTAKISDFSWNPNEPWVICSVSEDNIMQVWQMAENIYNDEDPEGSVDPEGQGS
PRC2 complex (EZH2 Y641F/EED/SUZ12/RbAp48/AEBP2), sequence (Q6ZN18 whole entry partner): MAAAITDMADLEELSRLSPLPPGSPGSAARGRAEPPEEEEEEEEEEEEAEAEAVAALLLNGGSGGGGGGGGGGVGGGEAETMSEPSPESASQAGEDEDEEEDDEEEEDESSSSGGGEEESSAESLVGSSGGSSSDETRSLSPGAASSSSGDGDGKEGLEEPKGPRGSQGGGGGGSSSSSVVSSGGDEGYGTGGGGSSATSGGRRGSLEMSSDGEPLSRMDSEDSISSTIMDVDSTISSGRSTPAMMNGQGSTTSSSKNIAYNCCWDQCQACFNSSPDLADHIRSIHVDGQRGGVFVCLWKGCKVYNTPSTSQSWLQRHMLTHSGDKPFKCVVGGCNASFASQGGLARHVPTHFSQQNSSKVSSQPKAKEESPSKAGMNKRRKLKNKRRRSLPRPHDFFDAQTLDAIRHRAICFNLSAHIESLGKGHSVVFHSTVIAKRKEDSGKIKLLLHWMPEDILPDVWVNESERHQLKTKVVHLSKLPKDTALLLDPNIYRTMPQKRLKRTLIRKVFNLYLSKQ

| IC50 [1] | Molecule | other results |
| --- | --- | --- |
| – | Cc1cc(C)c(CNC(=O)c2cc3cc(-c4cn(C)cn4)cn3c(C(C)N3CCOCC3)c2C)c(=O)[nH]1 (centres unmarked) [Example 52, N-((4,6-dimethyl-2-oxo-1,2-dihydropyridin-3-yl)methyl)-6-methyl-2-(1-methyl-1H-imidazole-4-yl)-5-(1-morpholineylethyl)indolizine-7-carboxamide] | IC50: 100 to 1000 nM |
| < 100 nM | CCN(c1c(C)c(C(=O)NCc2c(OC)cc(C)[nH]c2=O)cc2c(-c3ccnc(N(C)C)c3)ncn12)C1CCN(CC(F)(F)F)CC1 [Compound 204, 1-(2-(dimethylamino)pyridin-4-yl)-5-(ethyl(1-(2,2,2-trifluoroethyl)piperidin-4-yl)amino)-N-((4-methoxy-6-methyl-2-oxo-1,2-dihydropyridin-3-yl)methyl)-6-methylimidazo[1,5-a]pyridine-7-carboxamide] | – |
| – | COc1cc(C)[nH]c(=O)c1CNC(=O)c1cc2c(-c3ccnn3C)ccn2c(C(C)N2CCOCC2)c1C (centres unmarked) [Example 132, N-((4-methoxy-6-methyl-2-oxo-1,2-dihydropyridin-3-yl)methyl)-6-methyl-1-(1-methyl-1H-pyrazol-5-yl)-5-(1-morpholinylethyl)indolizine-7-carboxamide] | IC50: < 100 nM |
| 100 to 1000 nM | Cc1cc(C)c(CNC(=O)c2cc3cccn3c(C(C)OCc3ccccn3)c2C)c(=O)[nH]1 (centres unmarked) [Example 15, N-((4,6-dimethyl-2-oxo-1,2-dihydropyridin-3-yl)methyl)-6-methyl-5-(1-(pyridine-2-ylmethoxy)ethyl)indolizine-7-carboxamide] | – |
| 1000 to 10000 nM | CCOC(C)c1c(C)c(C(=O)NCc2c(C)cc(C)[nH]c2=O)cc2cccn12 (centres unmarked) [Example 2, N-((4,6-Dimethyl-2-oxo-1,2-dihydropyridin-3-yl)methyl)-5-(1-ethoxyethyl)-6-methylindolizine-7-carboxamide] | – |
| – | Cc1cc(C)c(CNC(=O)c2cc3cc(-c4cncs4)cn3c(C(C)N3CCC(N(C)C)CC3)c2C)c(=O)[nH]1 (centres unmarked) [Example 139] | IC50: < 100 nM |
| 100 to 1000 nM | CNc1ccc(-c2ccn3c([C@H](C)N4CCN(CC(F)(F)F)CC4)c(C)c(C(=O)NCc4c(OC)cc(C)[nH]c4=O)cc23)cn1 (single isomer, unassigned) [Compound 164, (S)—N-((4-methoxy-6-methyl-2-oxo-1,2-dihydropyridin-3-yl)methyl)-6-methyl-1-(6-(methylamino)pyridin-3-yl)-5-(1-(4-(2,2,2-trifluoroethyl)piperazin-1-yl)ethyl)indolizine-7-formamide or (R)—N-((4-methoxy-6-methyl-2-oxo-1,2-dihydropyridin-3-yl)methyl)-6-methyl-1-(6-(methylamino)pyridin-3-yl)-5-(1-(4-(2,2,2-trifluoroethyl)piperazin-1-yl)ethyl)indolizine-7-formamide] | – |
| 100 to 1000 nM | COc1cc(C)[nH]c(=O)c1CNC(=O)c1cc2c(-c3cc(C)nc(C)c3)ccn2c([C@H](C)N2CCN(CC(F)(F)F)CC2)c1C (single isomer, unassigned) [Compound 175, (S)-1-(2,6-dimethylpyridin-4-yl)-N-((4-methoxy-6-methyl-2-oxo-1,2-dihydropyridine-3-yl)methyl)-6-methyl-5-(1-(4-(2,2,2-trifluoroethyl)piperazin-1-yl)ethyl)indolizine-7-carboxamide or (R) 1-(2,6-dimethylpyridin-4-yl)-N-((4-methoxy-6-methyl-2-oxo-1,2-dihydropyridine-3-yl)methyl)-6-methyl-5-(1-(4-(2,2,2-trifluoroethyl)piperazin-1-yl)ethyl)indolizine-7-carboxamide] | – |
| 100 to 1000 nM | COC(C)c1c(C)c(C(=O)NCc2c(C)cc(C)[nH]c2=O)cc2cccn12 (centres unmarked) [Example 1, N-((4,6-Dimethyl-2-oxo-1,2-dihydropyridin-3-yl)methyl)-5-(1-methoxyethyl)-6-methylindolizine-7-carboxamide] | – |
| < 100 nM | COc1cc(C)[nH]c(=O)c1CNC(=O)c1cc2c(-c3ccc(C)nn3)ccn2c([C@H](C)N2CCN(CC(F)(F)F)CC2)c1C (single isomer, unassigned) [Compound 200, (S)—N-((4-methoxy-6-methyl-2-oxo-1,2-dihydropyridin-3-yl)methyl)-6-methyl-1-(6-methylpyridazin-3-yl)-5-(1-(4-(2,2,2-trifluoroethyl)piperazin-1-yl)ethyl)indolizine-7-formamide or (R)—N-((4-methoxy-6-methyl-2-oxo-1,2-dihydropyridin-3-yl)methyl)-6-methyl-1-(6-methylpyridazin-3-yl)-5-(1-(4-(2,2,2-trifluoroethyl)piperazin-1-yl)ethyl)indolizine-7-formamide] | – |
| < 100 nM | COc1cc(C)[nH]c(=O)c1CNC(=O)c1cc2cc(Cl)cn2c(C(C)N2CCC(N(C)C)CC2)c1C (centres unmarked) [Example 130, 2-chloro-5-(1-(4-(dimethylamino)piperidin-1-yl)ethyl)-N-((4-methoxy-6-methyl-2-oxo-1,2-di hydropyridin-3-yl)methyl)-6-methylindolizine-7-carboxamide] | – |
| 1000 to 10000 nM | Cc1cc(C)c(CNC(=O)c2cc3cc(Br)cn3c(C(C)N3CCN(C(=O)CO)CC3)c2C)c(=O)[nH]1 (centres unmarked) [Example 102] | – |
| – | COc1cc(C)[nH]c(=O)c1CNC(=O)c1cc2c(-c3cn[nH]c3)ccn2c(C(C)N2CCOCC2)c1C (centres unmarked) [Compound 152, N-((4-Methoxy-6-methyl-2-oxo-1,2-dihydropyridin-3-yl)methyl)-6-methyl-5-(1-morpholinylethyl)-1-(1H-pyrazol-4-yl)indolizine-7-carboxamide] | IC50 [2]: 2.65 nM |
| 100 to 1000 nM | COc1cc(C)[nH]c(=O)c1CNC(=O)c1cc2c(-c3ccnc(N(C)C)c3)ccn2c([C@H](C)N2CCN(CC(F)(F)F)CC2)c1C (single isomer, unassigned) [Compound 172, (S)-1-(2-(dimethylamino)pyridin-4-yl)-N-((4-methoxy-6-methyl-2-oxo-1,2-dihydropyridine-3-yl)methyl)-6-methyl-5-(1-(4-(2,2,2-trifluoroethyl)piperazin-1-yl)ethyl)indolizine-7-carboxamide or (R) 1-(2-(dimethylamino)pyridin-4-yl)-N-((4-methoxy-6-methyl-2-oxo-1,2-dihydropyridine-3-yl)methyl)-6-methyl-5-(1-(4-(2,2,2-trifluoroethyl)piperazin-1-yl)ethyl)indolizine-7-carboxamide] | – |
| – | COc1cc(C)[nH]c(=O)c1CNC(=O)c1cc2c(-c3ccn[nH]3)ccn2c(C(C)N2CCOCC2)c1C (centres unmarked) [Compound 153, N-((4-Methoxy-6-methyl-2-oxo-1,2-dihydropyridin-3-yl)methyl)-6-methyl-5-(1-morpholinylethyl)-1-(1H-pyrazol-5-yl)indolizine-7-carboxamide] | IC50 [2]: 2.15 nM |
| < 100 nM | COc1cc(C)[nH]c(=O)c1CNC(=O)c1cc2cc(-c3nccn3C)cn2c(C(C)N2CCC(N(C)C)CC2)c1C (centres unmarked) [Example 108] | – |
| 100 to 1000 nM | N-((4,6-dimethyl-2-oxo-1,2-dihydropyridin-3-yl)methyl)-2-(4-((dimethylamino)methyl)phen yl))-6-methyl-5-(1-morpholinoethyl)indolizine-7-carboxamide [Example 75] | – |

| Molecule | IC50 [1] | other results |
| --- | --- | --- |
| Cc1cc(C)c(CNC(=O)c2cc3cc(C4CCNCC4)cn3c(C(C)N3CCOCC3)c2C)c(=O)[nH]1 (centres unmarked) [Example 46, N-((4,6-dimethyl-2-oxo-1,2-dihydropyridin-3-yl)methyl)-6-methyl-5-(1-morphinolinylethyl)-2-(piperidin-4-yl)indolizine-7-carboxamide] | < 100 nM | – |
| CCN(c1c(C)c(C(=O)NCc2c(C)cc(C)[nH]c2=O)cc2cc(-c3nccs3)cn12)C1CCOCC1 [Example 67, N-((4,6-dimethyl-2-oxo-1,2-dihydropyridin-3-yl)methyl)-5-(ethyl(tetrahydro-2H-pyran-4-yl)amino)-6-methyl-2-(thiazol-2-yl)indolizin-7-carboxamide] | 100 to 1000 nM | – |
| Cc1cc(C)c(CNC(=O)c2cc3cc(-c4ccc(N5CCNCC5)nc4)cn3c(C(C)N3CCOCC3)c2C)c(=O)[nH]1 (centres unmarked) [Example 90, N-((4,6-dimethyl-2-oxo-1,2-dihydropyridin-3-yl)methyl)-6-methyl-5-(1-morpholinoethyl)-2-(6-(piperazin-1-yl)pyridin-3-yl)indolizine-7-carboxamide] | 1000 to 10000 nM | – |
| Cc1cc(C)c(CNC(=O)c2cc3cc(-c4cccc(CN5CCOCC5)c4)cn3c(C(C)N3CCOCC3)c2C)c(=O)[nH]1 (centres unmarked) [Example 80, N-((4,6-dimethyl-2-oxo-1,2-dihydropyridin-3-yl)methyl)-5-(1-morpholine-1-ethyl)-6-methyl-2-(3-(morpholinemethylene)phenyl)indolizin-7-amide] | 100 to 1000 nM | – |
| Cc1cc(C)c(CNC(=O)c2cc3cc(-c4cccnc4)cn3c(C(C)N3CCOCC3)c2C)c(=O)[nH]1 (centres unmarked) [Example 33, N-((4,6-dimethyl-2-oxo-1,2-dihydropyridin-3-yl)methyl)-6-methyl-5-(1-morphinolinylethyl)-2-(pyridin-3-yl)indolizine-7-carboxamide] | < 100 nM | – |
| COc1ccc(-c2cc3cc(C(=O)NCc4c(C)cc(C)[nH]c4=O)c(C)c(C(C)N4CCOCC4)n3c2)c(F)c1 (centres unmarked) [Example 43, N-((4,6-dimethyl-2-oxo-1,2-dihydropyridin-3-yl)methyl)-2-(2-fluoro-4-methoxyphenyl)-6-methyl-5-(1-morphinolinylethyl)indolizine-7-carboxamide] | < 100 nM | – |
| CCN(c1c(C)c(C(=O)NCc2c(C)cc(C)[nH]c2=O)cc2cc(Br)cn12)C1CCNCC1 [Example 61, 2-bromo-N-((4,6-dimethyl-2-oxo-1,2-dihydropyridin-3-yl)methyl)-5-(ethyl(piperidin-4-yl)amino)-6-methylindolizine-7-carboxamide] | 100 to 1000 nM | – |
| Cc1cc(C)c(CNC(=O)c2cc3cc(Br)cn3c(C(C)N3CCN(CCC(F)(F)F)CC3)c2C)c(=O)[nH]1 (centres unmarked) [Example 104] | 100 to 1000 nM | – |
| Cc1cc(C)c(CNC(=O)c2cc3cc(C4=CCOCC4)cn3c(C(C)N3CCOCC3)c2C)c(=O)[nH]1 (centres unmarked) [Example 47] | 100 to 1000 nM | – |
